According to paper PMC10354055, “An optimized Nurr1 agonist provides disease-modifying effects in Parkinson’s disease models” (Nature Communications, 2023):
Where “and” joins values, the source holds several entries; their conditions need not be identical. Equal values may be shown once.

Columns and labels:
Type in all cases: cell-based
Nurr1-LBD point mutants [1] = target: T1, Nurr1-LBD point mutants (Mus musculus, UniProt Q06219, L593A); assay: Luciferase assay with point-mutants of Nurr1-LBD, SK-N-BE(2)C cells;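 further: Firefly luciferase normalized to beta-galactosidase activity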; conditions: Supplementary Fig. 2, L593A
T1 construct: expressed in transfected cells; host or cells: SK-N-BE(2)C
T1 sequence (Q06219 whole entry L593A, the tested form may be a part): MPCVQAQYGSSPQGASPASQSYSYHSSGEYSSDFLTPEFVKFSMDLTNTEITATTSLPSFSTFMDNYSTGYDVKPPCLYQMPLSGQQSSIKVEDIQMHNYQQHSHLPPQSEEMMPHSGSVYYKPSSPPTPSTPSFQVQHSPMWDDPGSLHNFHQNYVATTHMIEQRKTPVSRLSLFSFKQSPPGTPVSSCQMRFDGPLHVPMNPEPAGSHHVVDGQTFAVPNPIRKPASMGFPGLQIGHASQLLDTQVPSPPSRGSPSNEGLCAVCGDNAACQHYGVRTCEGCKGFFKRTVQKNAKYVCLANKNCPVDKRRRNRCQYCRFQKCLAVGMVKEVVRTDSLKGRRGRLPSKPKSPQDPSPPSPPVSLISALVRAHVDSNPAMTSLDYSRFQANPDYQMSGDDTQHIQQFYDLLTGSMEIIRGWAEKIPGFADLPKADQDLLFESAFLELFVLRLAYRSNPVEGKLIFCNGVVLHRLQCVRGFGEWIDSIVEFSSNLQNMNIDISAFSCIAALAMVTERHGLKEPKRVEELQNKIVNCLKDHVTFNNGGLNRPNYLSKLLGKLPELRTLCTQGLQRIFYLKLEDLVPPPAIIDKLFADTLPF
Procedure: (§1) Nurr1 transactivity was normalized to β-galactosidase activity.
(§2) Nurr1 mutants were generated using the QuikChange ǁ XL site-directed mutagenesis kit (Agilent Technologies) according to the manufacturer’s instruction. Mutagenesis reactions were carried out on the plasmid of mouse Nurr1 cloned into pcDNA3.1 backbone, and then verified by sequencing.

Nurr1-LBD point mutants [2] = target: T2, Nurr1-LBD point mutants (Mus musculus, UniProt Q06219, K590A); assay: as above; conditions: Supplementary Fig. 2, K590A
T2 construct: expressed in transfected cells; host or cells: SK-N-BE(2)C
T2 sequence (Q06219 whole entry K590A, the tested form may be a part): as the sequence (Q06219 whole entry L593A, the tested form may be a part) above, with K590A, A593L counted along it
Procedure: as §1, §2

Nurr1-LBD point mutants [3] = target: T3, Nurr1-LBD point mutants (Mus musculus, UniProt Q06219, S441A); assay: as above; conditions: Supplementary Fig. 2, S441A
T3 construct: expressed in transfected cells; host or cells: SK-N-BE(2)C
T3 sequence (Q06219 whole entry S441A, the tested form may be a part): as the sequence (Q06219 whole entry L593A, the tested form may be a part) above, with S441A, A593L counted along it
Procedure: as §1, §2

Nurr1-LBD point mutants [4] = target: T4, Nurr1-LBD point mutants (Mus musculus, UniProt Q06219); assay: as above; conditions: Supplementary Fig. 2, WT
T4 construct: expressed in transfected cells; host or cells: SK-N-BE(2)C
T4 sequence (Q06219 whole entry, change not shown, the tested form may be a part): as the sequence (Q06219 whole entry L593A, the tested form may be a part) above, with A593L counted along it
Procedure: as §1, §2

Nurr1-LBD point mutants [5] = target: T5, Nurr1-LBD point mutants (Mus musculus, UniProt Q06219, D594A); assay: as above; conditions: Supplementary Fig. 2, D594A
T5 construct: expressed in transfected cells; host or cells: SK-N-BE(2)C
T5 sequence (Q06219 whole entry D594A, the tested form may be a part): as the sequence (Q06219 whole entry L593A, the tested form may be a part) above, with A593L, D594A counted along it
Procedure: as §1, §2

Nor1 = target: T6, Nor1 (Homo sapiens, UniProt Q92570); assay: Luciferase reporter assay, Nor1 LBD, SK-N-BE(2)C cells; conditions: Fig. 1f; CQ 100 µM, 4A7C-301 20 µM, PGA1 10 µM
T6 construct: using LBD of NR4A subfamily members in SK-N-BE(2)C cells; expressed in transfected cells; host or cells: SK-N-BE(2)C
T6 sequence (Q92570 394-623 limits assumed): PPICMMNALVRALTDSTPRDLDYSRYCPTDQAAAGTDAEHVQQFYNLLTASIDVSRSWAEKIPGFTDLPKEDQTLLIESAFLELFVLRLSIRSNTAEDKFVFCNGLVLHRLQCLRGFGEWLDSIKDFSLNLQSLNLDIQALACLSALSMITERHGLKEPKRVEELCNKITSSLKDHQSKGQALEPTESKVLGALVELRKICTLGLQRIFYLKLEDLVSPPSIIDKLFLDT

- Luciferase activity (fold), Nor1 (Nor1): 8.223 fold and 7.904 fold and 8.304 fold
Compound: CCCCC[C@H](O)/C=C/[C@H]1C=CC(=O)[C@@H]1CCCCCCC(=O)O [PGA1, Prostaglandin A1]
- Luciferase activity (fold) (Nurr1-LBD point mutants [1]): 11.666 fold and 12.1821 fold and 11.0369 fold
- Luciferase activity (fold) (Nurr1-LBD point mutants [2]): 12.5774 fold and 11.0052 fold and 12.4192 fold
- Luciferase activity (fold) (Nurr1-LBD point mutants [3]): 12.6359 fold and 12.6237 fold and 10.9807 fold
- Luciferase activity (fold) (Nurr1-LBD point mutants [4]): 12.6112 fold and 12.2963 fold and 12.2061 fold
- Luciferase activity (fold) (Nurr1-LBD point mutants [5]): 12.291 fold and 11.1318 fold and 11.3674 fold
